According to PubChem BioAssay AID328 (DTP/NCI, 2004):
Several values for one entry are separate records, joined by “and”; a condition that tells them apart may be missing. Identical values can stand only once. Toxic doses and inconclusive results are not listed.

Tested on: BDF1 mice, P388 leukemia ip, median survival T/C
Assay: NCI In Vivo Anticancer Drug Screen. Data for tumor model P388 Leukemia (intraperitoneal) in B6D2F1 (BDF1) mice
Settings: endpoint: median survival time, higher = longer survival
How it was run: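 Vehicle-dosed animals serve as the reference; survival of compound-dosed, tumour-implanted mice is divided by it.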

[1] = dose: 100.0 mg/kg/injection, schedule: Q01DX009 (ip), vehicle: saline
[2] = dose: 100.0 mg/kg/injection, schedule: Q01DX009 (ip), vehicle: saline with Tween-80
[3] = dose: 200.0 mg/kg/injection, schedule: Q01DX009 (ip), vehicle: saline with Tween-80
[4] = dose: 100.0 mg/kg/injection, schedule: Q04DX003 (ip), vehicle: Klucel (hydroxypropylcellulose) (HPC)
[5] = dose: 400.0 mg/kg/injection, schedule: Q04DX003 (ip), vehicle: Klucel (hydroxypropylcellulose) (HPC)
[6] = dose: 50.0 mg/kg/injection, schedule: Q01DX009 (ip), vehicle: saline with Tween-80
[7] = dose: 100.0 mg/kg/injection, schedule: Q04DX003 (ip), vehicle: saline with Tween-80
[8] = dose: 25.0 mg/kg/injection, schedule: Q01DX005 (ip), vehicle: saline with Tween-80
[9] = dose: 50.0 mg/kg/injection, schedule: Q01DX005 (ip), vehicle: saline with Tween-80
[10] = dose: 100.0 mg/kg/injection, schedule: Q01DX005 (ip), vehicle: saline with Tween-80
[11] = dose: 200.0 mg/kg/injection, schedule: Q01DX005 (ip), vehicle: saline with Tween-80

O=C1NC(c2cccs2)(c2cccs2)C(=O)N1Cl
T/C (dose: 6.25 mg/kg/injection, schedule: Q01DX009 (ip), vehicle: water): 94 % of control | T/C (dose: 6.25 mg/kg/injection, schedule: Q04DX003 (ip), vehicle: water): 97 % of control | T/C (dose: 12.5 mg/kg/injection, schedule: Q01DX009 (ip), vehicle: water): 104 % of control | T/C (dose: 12.5 mg/kg/injection, schedule: Q04DX003 (ip), vehicle: water): 97 % of control | T/C (dose: 25.0 mg/kg/injection, schedule: Q01DX009 (ip), vehicle: water): 103 % of control | T/C (dose: 25.0 mg/kg/injection, schedule: Q04DX003 (ip), vehicle: water): 97 % of control | T/C (dose: 50.0 mg/kg/injection, schedule: Q01DX009 (ip), vehicle: water): 116 % of control | T/C (dose: 50.0 mg/kg/injection, schedule: Q04DX003 (ip), vehicle: water): 95 % of control | T/C (dose: 100.0 mg/kg/injection, schedule: Q04DX003 (ip), vehicle: water): 95 % of control | T/C (dose: 200.0 mg/kg/injection, schedule: Q04DX003 (ip), vehicle: water): 88 % of control

Nc1nc(N)c(N=O)c(N)n1
T/C [1]: 150 % of control | T/C (dose: 200.0 mg/kg/injection, schedule: Q01DX009 (ip), vehicle: saline): 111 % of control | T/C (dose: 400.0 mg/kg/injection, schedule: Q01DX009 (ip), vehicle: saline): 106 % of control

NC(=O)/C=C/C(=O)c1c(Cl)cccc1Cl
T/C (dose: 1.56 mg/kg/injection, schedule: Q01DX009 (ip), vehicle: saline with Tween-80): 109 % of control and 115 % of control | T/C (dose: 3.13 mg/kg/injection, schedule: Q01DX009 (ip), vehicle: saline with Tween-80): 118 % of control | T/C (dose: 6.25 mg/kg/injection, schedule: Q01DX009 (ip), vehicle: saline with Tween-80): 123 % of control and 124 % of control | T/C (dose: 12.5 mg/kg/injection, schedule: Q01DX009 (ip), vehicle: saline with Tween-80): 95 % of control

CCCCCCC(=O)/C=C/c1ccc(Cl)cc1Cl
T/C [2]: 109 % of control | T/C [3]: 94 % of control | T/C (dose: 400.0 mg/kg/injection, schedule: Q01DX009 (ip), vehicle: saline with Tween-80): 98 % of control

COc1ccc(C(=O)c2ccccc2)cc1OC
T/C [4]: 100 % of control | T/C [5]: 100 % of control

NNC(=O)C(=O)NCc1ccco1
T/C [6]: 98 % of control

C(=N\Nc1nc2ccccc2o1)/c1ccncc1
T/C (dose: 100.0 mg/kg/injection, schedule: Q01DX009 (ip), vehicle: Klucel (hydroxypropylcellulose) (HPC)): 100 % of control and 104 % of control | T/C [4]: 100 % of control | T/C (dose: 200.0 mg/kg/injection, schedule: Q01DX009 (ip), vehicle: Klucel (hydroxypropylcellulose) (HPC)): 109 % of control | T/C (dose: 200.0 mg/kg/injection, schedule: Q04DX003 (ip), vehicle: Klucel (hydroxypropylcellulose) (HPC)): 95 % of control | T/C (dose: 400.0 mg/kg/injection, schedule: Q01DX009 (ip), vehicle: Klucel (hydroxypropylcellulose) (HPC)): 105 % of control and 109 % of control | T/C [5]: 100 % of control

CCCCN1CCCC(O)C1 (centres undefined)
T/C (dose: 50.0 mg/kg/injection, schedule: Q01DX009 (ip), vehicle: saline): 100 % of control | T/C (dose: 50.0 mg/kg/injection, schedule: Q04DX003 (ip), vehicle: saline with Tween-80): 105 % of control | T/C [1]: 100 % of control | T/C [7]: 110 % of control | T/C (dose: 200.0 mg/kg/injection, schedule: Q04DX003 (ip), vehicle: saline with Tween-80): 100 % of control

O=C(O)C(CSC(c1ccccc1)(c1ccccc1)c1ccccc1)N=Cc1ccccc1O (centres undefined)
T/C [6]: 159 % of control | T/C (dose: 66.0 mg/kg/injection, schedule: Q04DX003 (ip), vehicle: saline with Tween-80): 104 % of control | T/C [2]: 186 % of control | T/C [7]: 190 % of control | T/C (dose: 150.0 mg/kg/injection, schedule: Q04DX003 (ip), vehicle: saline with Tween-80): 177 % of control | T/C [3]: 272 % of control

CCNC(=O)OCc1cnc(C)c(OC(=O)NCC)c1COC(=O)NCC
T/C [8]: 98 % of control | T/C [9]: 110 % of control | T/C [10]: 100 % of control | T/C [11]: 101 % of control

C[P+](C)(c1ccccc1)c1ccccc1
T/C (dose: 6.25 mg/kg/injection, schedule: Q04DX003 (ip), vehicle: saline with Tween-80): 100 % of control | T/C (dose: 12.5 mg/kg/injection, schedule: Q04DX003 (ip), vehicle: saline with Tween-80): 104 % of control

C(=C/c1nnc2ncccn12)/c1ccccc1
T/C [6]: 97 % of control | T/C [2]: 94 % of control | T/C [3]: 110 % of control

CN(C)c1oc2ccc3ccccc3c2c(=O)c1C#N
T/C [6]: 95 % of control | T/C [2]: 97 % of control | T/C [3]: 92 % of control

N#CC1OC(COC(=O)c2ccccc2)C(O)C1O (centres undefined)
T/C [6]: 101 % of control | T/C [2]: 94 % of control | T/C [3]: 88 % of control

O=C1c2ccccc2C(=O)c2c(NCCOCCO)ccc(NCCOCCO)c21
T/C [8]: 98 % of control | T/C [9]: 94 % of control | T/C [10]: 90 % of control | T/C [11]: 102 % of control
